Where two headings read alike, the source gives them in different places.
Columns and labels:
human tumor xenografts = settings: cited from earlier work
[1] = test system: human colon cancer xenografts; settings: in vivo; cited from earlier work
[2] = cited from earlier work
DNA topoisomerase I = molecular target: T1, DNA topoisomerase I (Homo sapiens, UniProt P11387); settings: by stabilizing the cleavable complex; cited from earlier work
T1 sequence (P11387 1-765): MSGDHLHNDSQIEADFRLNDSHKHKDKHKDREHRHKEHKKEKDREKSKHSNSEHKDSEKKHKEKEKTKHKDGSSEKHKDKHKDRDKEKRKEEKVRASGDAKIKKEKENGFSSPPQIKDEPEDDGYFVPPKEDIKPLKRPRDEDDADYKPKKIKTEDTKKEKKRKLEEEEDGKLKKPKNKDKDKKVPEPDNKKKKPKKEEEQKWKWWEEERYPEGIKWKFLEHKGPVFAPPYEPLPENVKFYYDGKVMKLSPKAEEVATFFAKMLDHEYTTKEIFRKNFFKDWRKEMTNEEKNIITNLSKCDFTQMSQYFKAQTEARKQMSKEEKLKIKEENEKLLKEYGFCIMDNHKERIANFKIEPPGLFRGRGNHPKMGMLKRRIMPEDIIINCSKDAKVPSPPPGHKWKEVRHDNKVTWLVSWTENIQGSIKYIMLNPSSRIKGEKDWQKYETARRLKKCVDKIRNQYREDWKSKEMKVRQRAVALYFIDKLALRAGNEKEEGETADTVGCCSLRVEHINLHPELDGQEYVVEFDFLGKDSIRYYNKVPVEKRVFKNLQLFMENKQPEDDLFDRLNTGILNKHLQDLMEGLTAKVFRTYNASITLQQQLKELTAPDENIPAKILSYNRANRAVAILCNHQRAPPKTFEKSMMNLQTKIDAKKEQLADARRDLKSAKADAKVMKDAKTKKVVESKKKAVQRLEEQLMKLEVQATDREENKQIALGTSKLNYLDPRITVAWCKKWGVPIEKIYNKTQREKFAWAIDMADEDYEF

[3] = ground in an amalgamator for 10 minutes
[4] = for Hygroscopicity: from moisture sorption 5 to 95% RH; for Weight % chg: 25 deg C
Experimental: Moisture sorption/desorption data were collected on a VTI SGA-100 moisture balance system. […] The samples were not dried prior to analysis. Equilibrium criteria used for analysis were less than 0.0100 weight % change in 5 minutes with a maximum equilibration time of 3 hours if the weight criterion was not met. Data were not corrected for the initial moisture content of the samples.

[5] = closed vial, 31 days, ambient conditions
[6] = Experimental: Dehydration/desolvation studies were conducted by placing a sample under continuous vacuum at room temperature for 14 days. An XRPD pattern was obtained on the remaining solid and compared to the starting material.
[7] = cited from earlier work; remark: listed apart in the source

In the case of `CC[C@@]1(O)C(=O)OCc2c1cc1n(c2=O)Cc2cc3c([N+](=O)[O-])cccc3nc2-1` [9-nitrocamptothecin, 9-nitro-20(S)-camptothecin], the “Growth of human tumor xenografts” value (human tumor xenografts; immunodeficient nude mice) is listed as “inhibited the growth”, the “Activity against human tumor xenograft models” value (human tumor xenografts; mouse, in vivo) is listed as “high activity” and the “Regression of established human tumors” value (human tumor xenografts; xenografts in nude mice) is listed as “induced regression”.
In the case of `CC[C@@]1(O)C(=O)OCc2c1cc1n(c2=O)Cc2cc3cc4c(cc3nc2-1)OCO4` [10,11,MD, 10,11-methylendioxy-20(S)-camptothecin], the “Anticancer activity against human colon cancer xenografts” value [1] is given as “high anticancer activity”.
In the case of `CC[C@@]1(O)C(=O)OCc2c1cc1n(c2=O)Cc2cc3ccccc3nc2-1` [Camptothecin], the Water solubility [2] is given as “poorly water soluble” and the “Inhibition of DNA topoisomerase I” value (DNA topoisomerase I) is given as “inhibit DNA topoisomerase I”.
For `CC[C@@]1(O)C(=O)OCc2c1cc1n(c2=O)Cc2cc3c(N)cccc3nc2-1` [Form 9AC, 9-Amino-20(S)-Camptothecin], the “Anticancer activity against human colon cancer xenografts” value [1] is given as “high anticancer activity”.
With `CC[C@@]1(O)C(=O)OCc2c1cc1n(c2=O)Cc2cc3c([N+](=O)[O-])cccc3nc2-1` [Form A, 9-nitro-20(S)-camptothecin] the “Change of crystallinity on grinding (XRPD)” value [3] was “losing crystallinity after grinding” and the Hygroscopicity [4] was “not hygroscopic”.
For `CC[C@@]1(O)C(=O)OCc2c1cc1n(c2=O)Cc2cc3c([N+](=O)[O-])cccc3nc2-1` [Form B, 9-nitro-20(S)-camptothecin], the “Stability of the crystalline polymorph on storage (XRPD pattern)” value [5] was “relatively stable”, the “Total weight gained in the region from 5 to 95% RH” value ([4]; 5 to 95% RH) was 2.21% and the Weight % chg ([4]; desorption, about 5% RH) was −1.0408%. It also gave a Weight % chg ([4]; desorption, about 15% RH) of −0.5118%, a Weight % chg ([4]; desorption, about 25% RH) of −0.1151% and a Weight % chg ([4]; desorption, about 35% RH) of 0.1861%. The Weight % chg ([4]; desorption, about 45% RH) was 0.4359%, the Weight % chg ([4]; desorption, about 55% RH) was 0.6637% and the Weight % chg ([4]; desorption, about 65% RH) was 0.8473%. For the same compound, the Weight % chg ([4]; desorption, about 75% RH) was 1.0310%, the Weight % chg ([4]; desorption, about 85% RH) was 1.1706% and the “Water lost upon equilibration at 5% RH” value ([4]; equilibration at 5% RH) was 0.98%. The Hygroscopicity [4] was “relatively hygroscopic”, the Weight % chg ([4]; sorption, about 5% RH) was −0.9820% and the Weight % chg ([4]; sorption, about 15% RH) was −0.4898%. The Weight % chg ([4]; sorption, about 25% RH) was −0.1151%, the Weight % chg ([4]; sorption, about 35% RH) was 0.1788% and the Weight % chg ([4]; sorption, about 45% RH) was 0.4286%. The Weight % chg ([4]; sorption, about 55% RH) was 0.6416%, the Weight % chg ([4]; sorption, about 65% RH) was 0.8314% and the Weight % chg ([4]; sorption, about 75% RH) was 0.9869%. For the same compound, the Weight % chg ([4]; sorption, about 85% RH) was 1.1118%, the Weight % chg ([4]; sorption, about 95% RH) was 1.2293% and the Weight % chg ([4]; start, elapsed time 0.0 min) was 0.0000%.
For `CC[C@@]1(O)C(=O)OCc2c1cc1n(c2=O)Cc2cc3c([N+](=O)[O-])cccc3nc2-1` [Form C, 9-nitro-20(S)-camptothecin], the “Change of form on desolvation under vacuum” value [6] was “becomes amorphous”.
In the case of `CC[C@@](O)(C(=O)[O-])c1cc2n(c(=O)c1CO)Cc1cc3ccccc3nc1-2.[Na+]` [Sodium camptothecin], the “Side effects in clinical trials” value ([7]; administered intravenously) is listed as “myelosuppression and hemorrhagic cystitis” and the “Antineoplastic activity in clinical trials” value ([7]; solubilized by sodium hydroxide in water, early 1970's trials) is listed as “found to have antineoplastic activity”.
